Reference: patent US20060051739A1, “Methods and composition for visualizing and interfering with chromosomal tethering of extrachromosomal molecules” (Salk Institute for Biological Studies, priority 2000, published 2006)

Tested on: COLO320DM cells with lacO/lacR-GFP labelled DMs
Assay: Microtubule inhibitor treatment of cells with lacO/lacR-GFP labelled DMs, immunofluorescence microscopy
Type: cell-based, human
Conditions: for appearance of microtubules (immunofluorescence): taxol 10 μM or vinblastine 10 μg/ml for 3 hours prior to harvesting, anti α-tubulin staining; for chromosome organization / association of DMs with chromosomes / peripheral localization of DMs on mitotic chromosomes: taxol 10 μM or vinblastine 10 μg/ml for 3 hours; for chromosome organization: DAPI counterstain; for association of DMs with chromosomes / peripheral localization of DMs on mitotic chromosomes: DMs visualized by lacR-GFP
Excerpt: Visualizing DM-integrated and free EBV vectors by in vivo lacR-GFP staining: One of the established cell lines, containing DMs tagged with lacO repeat, was infected with lacR-GFP retrovirus. The infected cells were subcloned by limited dilution to obtain sublines in which DMs are more uniformly labelled with lacR-GFP. For time lapse imaging, the same cell line was infected with H2B-CFP and lacR-YFP viruses simultaneously, and the double-labelled cells were subcloned by limited dilution.
Immunofluorescence staining: Cells were harvested by gentle pipetting, attached to slide glasses by cytospin (500 rpm, 1 minute, Shandon, Pittsburgh, Pa.), and fixed with 3.7% formaldehyde for 10 minutes. When indicated, cells were treated with either taxol (10 μM paclitaxel, Sigma Chemical Co., St. Louis, Mo.) or vinblastine (10 μg/ml, Sigma) for 3 hours prior to harvesting them in order to disrupt microtubules. Slides were washed with PBS three times, and treated with blocking buffer (2.5% BSA, 0.2M glycine, 0.1% TritonX-100) for 30 minutes.
Primary and secondary antibodies were diluted in the blocking buffer. Primary antibodies were rabbit anti EBNA-1 serum K67-3 (1:1000, kindly provided by Dr. Jaap Middeldorp, Free University Hospital, Amsterdam, the Netherlands), human CREST autoantiserum hACA-M (for detecting centromeres, 1:2000 dilution) (Sullivan et al., 1994), and monoclonal anti α-tubulin (for detecting microtubules, 1:2000 dilution, Sigma). Following incubation for 60 minutes at room temperature, glass slides were washed three times with PBS. Secondary antibodies were Texas-Red conjugated anti-rabbit IgG (1:500, Jackson ImmunoResearch, West Grove, Pa.), Cy5 conjugated goat anti-human IgG (1:1000, Amersham, Piscataway, N.J.), and rhodamine conjugated anti mouse IgG (1:1000, Boehringer Mannheim), respectively. Following incubation for 60 minutes at room temperature, slides were washed three times with PBS, and chromosomes were counterstained with DAPI (1 μg/ml). Fluorescence of lacR-GFP was preserved well by this protocol.
Microscopy: All images appearing in the Figures were collected using a DeltaVision microscope system (Applied Precision Inc. Issaquah, Wash.) with either a 63×/NA 1.4 or a 100×/NA 1.35 oil immersion objective. For fixed specimens (except for the images of FIG. 2), three-dimensional data sets were collected to visualize EBV vectors and DMs as they distributed in multiple focal planes. Optical sections were collected at 0.2-μm focal intervals; pixel size was 0.111 μm for 63× objective and 0.0669 μm for 100× objective. Out-of-focus contamination was removed from each optical section via deconvolution processing and two-dimensional images were created by projecting the three-dimensional data stacks using the software supplied with the DeltaVision system.
The ability to readily visualize DMs without using FISH protocol has enabled the investigation of the mechanisms that contribute to their behavior during mitosis. The possibility that DMs are held away from the spindle poles by the microtubule-mediated antipolar force, to which normal chromosome arms are also known to be subjected (Fuller, 1995; Rieder et al., 1986) was examined. DM-labelled cells were treated with either a microtubule stabilizer (taxol) or destabilizer (vinblastine). DMs and microtubules were visualized by lacR-GFP and immunofluorescence staining, respectively.

Compound	appearance of microtubules (immunofluorescence)	chromosome organization	association of DMs with chromosomes	peripheral localization of DMs on mitotic chromosomes
CC(=O)O[C@H]1C(=O)[C@@]2(C)[C@H]([C@H](OC(=O)c3ccccc3)[C@]3(O)C[C@H](OC(=O)[C@H](O)[C@@H](NC(=O)c4ccccc4)c4ccccc4)C(C)=C1C3(C)C)[C@]1(OC(C)=O)CO[C@@H]1C[C@@H]2O [taxol, paclitaxel]	multiple aster-like structures	completely disrupted	still associated closely with chromosomes	no longer attached to the periphery of clustered chromosomes
CC[C@]1(O)C[C@@H]2CN(CCc3c([nH]c4ccccc34)[C@@](C(=O)OC)(c3cc4c(cc3OC)N(C)[C@H]3[C@@](O)(C(=O)OC)[C@H](OC(C)=O)[C@]5(CC)C=CCN6CC[C@]43[C@@H]65)C2)C1 [vinblastine]	rod-like microtubules	completely disrupted	still associated closely with chromosomes	no longer attached to the periphery of clustered chromosomes
